From patent US20090131539A1 (priority 2005, published 2009)

Test system: Varroa mites
Assay: Test set-up 2004: honeybee colonies infested with Varroa mites, count of mites fallen down in the hive
Type: in vivo, Varroa destructor or Varroa jacobsoni
Description: For the test set-up 2004 two bee colonies (A and B) were chosen, which were not used for honey production because of the medium applied for subsequent evaluation of residues and also because colony B was a swarming colony. Each colony consisted of approx. 25,000 animals. Both colonies were housed each in two so-called ‘Herold’ or ‘Zeitler’ hives with 10 frames. Their infestation, colony size, brood and general state was examined and approved.
In the beginning only hive A was treated with the mixture, hive B remained untreated in order to gain reference data. Over a period of 3½ months seven treatments took place with a longer break period of more than 30 days between two treatment cycles. At the end, two treatments with Perizin® were carried out in order to check on remaining mite infestation.
Approx. […] The hive was opened and from the top the medium was finely distributed with the lance at 5 cm intervals into the spaces between the frames. First the lower than immediately the upper frame was treated.
Before the hive was covered again two minutes were allowed for aeration. The time needed for treatment of each hive was one to two minutes (without aeration).
In order to ascertain the amount of mites fallen down in the hive the floor boards of both hives (A and B) were lined entirely with two ‘diapers’ and covered with Vaseline coated paper. This was done in order to make sure that mites which might have been still alive were prevented from running away. This process was repeated after every mite count.
The colonies C to L represented reference colonies and served to ascertain the Varroa density at the location (those hives were only lined with diapers). As those were predominantly migrating colonies they were not available throughout the whole duration of the treatment, but they still represent the general situation.
Especially as many apiarists relocate their hives there is always infestation with Varroa in spite of preventive measures taken. When recording the mites found amounts of 50 animals were counted exactly.
The course of the test is outlined here in note form: […]

In the case of O=CO [formic acid], the “count of mites fallen down in the hive” value (reference colony C, check-up 6 Sep. 2004, after formic acid (60%) evaporation of 30 Aug., amounts above 50 partially counted and extrapolated) was 1.200, the “count of mites fallen down in the hive” value (reference colony C, check-up 20 Sep. 2004, after second formic acid treatment of 6 Sep.) was 160 and the “count of mites fallen down in the hive” value (reference colony D, check-up 6 Sep. 2004, after formic acid (60%) evaporation of 30 Aug., amounts above 50 partially counted and extrapolated) was 600. For the same molecule, the “count of mites fallen down in the hive” value (reference colony D, check-up 20 Sep. 2004, after second formic acid treatment of 6 Sep.) was 40, the “count of mites fallen down in the hive” value (reference colony E, check-up 6 Sep. 2004, after formic acid (60%) evaporation of 30 Aug., amounts above 50 partially counted and extrapolated) was 400 and the “count of mites fallen down in the hive” value (reference colony E, check-up 20 Sep. 2004, after second formic acid treatment of 6 Sep.) was 50. The “count of mites fallen down in the hive” value (reference colony F, check-up 6 Sep. 2004, after formic acid (60%) evaporation of 30 Aug.) was 50, the “count of mites fallen down in the hive” value (reference colony F, check-up 20 Sep. 2004, after second formic acid treatment of 6 Sep.) was 10 and the “count of mites fallen down in the hive” value (reference colony G, check-up 6 Sep. 2004, after formic acid (60%) evaporation of 30 Aug., amounts above 50 partially counted and extrapolated) was 400. For the same molecule, the “count of mites fallen down in the hive” value (reference colony G, check-up 20 Sep. 2004, after second formic acid treatment of 6 Sep.) was 100, the “count of mites fallen down in the hive” value (reference colony H, check-up 6 Sep. 2004, after formic acid (60%) evaporation of 30 Aug., amounts above 50 partially counted and extrapolated) was 500 and the “count of mites fallen down in the hive” value (reference colony H, check-up 20 Sep. 2004, after second formic acid treatment of 6 Sep.) was 240. For the same molecule, the “count of mites fallen down in the hive” value (reference colony I, check-up 6 Sep. 2004, after formic acid (60%) evaporation of 30 Aug.) was 50, the “count of mites fallen down in the hive” value (reference colony I, check-up 20 Sep. 2004, after second formic acid treatment of 6 Sep.) was 38 and the “count of mites fallen down in the hive” value (reference colony J, check-up 6 Sep. 2004, after formic acid (60%) evaporation of 30 Aug., amounts above 50 partially counted and extrapolated) was 200. The “count of mites fallen down in the hive” value (reference colony J, check-up 20 Sep. 2004, after second formic acid treatment of 6 Sep.) was 44, the “count of mites fallen down in the hive” value (reference colony K, check-up 6 Sep. 2004, after formic acid (60%) evaporation of 30 Aug., amounts above 50 partially counted and extrapolated) was 200 and the “count of mites fallen down in the hive” value (reference colony K, check-up 20 Sep. 2004, after second formic acid treatment of 6 Sep.) was 60. For the same molecule, the “count of mites fallen down in the hive” value (reference colony L, check-up 6 Sep. 2004, after formic acid (60%) evaporation of 30 Aug., amounts above 50 partially counted and extrapolated) was 200 and the “count of mites fallen down in the hive” value (reference colony L, check-up 20 Sep. 2004, after second formic acid treatment of 6 Sep.) was 100.
